Like-named read-outs stand apart in the source and are kept apart here.
Key:
[1] = tested on: Heliothis virescens caterpillars; experiment: Heliothis virescens test (soya bean shoots dipped); type: in vivo; settings: kill, 100 ppm active compound
Method: (§1) [table] To produce a suitable preparation of active compound, 1 part by weight of active compound is mixed with the stated amounts of solvent and emulsifier, and the concentrate is diluted with emulsifier-containing water to the desired concentration. Soya bean shoots (Glycine max) are treated by being dipped into the preparation of active compound of the desired concentration and are populated with Heliothis virescens caterpillars whilst the leaves are still moist. After the desired period of time, the kill in % is determined. 100% means that all caterpillars have been killed; 0% means that none of the caterpillars has been killed.

[2] = log P by HPLC on reversed-phase column (EEC Directive 79/831 Annex V.A8); type: physicochemical
Method: The log p values reported in the above tables and preparation examples are determined in accordance with EEC Directive 79/831 Annex V.A8 by means of HPLC (high performance liquid chromatography) on a reversed-phase column (C 18). Temperature: 43° C.
Determination is carried out in the acidic range at a pH of 2.3 using 0.1% aqueous phosphoric acid and acetonitrile as mobile phases; linear gradient from 10% acetonitrile to 90% acetonitrile. The values are marked in the tables with ^a).
Determination takes place in the neutral range at a pH of 7.5 with 0.01-molar aqueous phosphate buffer solution and acetonitrile as mobile phases; linear gradient from 10% acetonitrile to 90% acetonitrile. The values are marked in the tables with ^b).
The calibration is carried out using unbranched alkan-2-ones (having from 3 to 16 carbon atoms) whose logP values are known (logP values determined on the basis of the retention times, using linear interpolation between two successive alkanones).

Lucilia cuprina larvae = experiment: Blowfly larvae test/development-inhibiting effect; type: in vivo; settings: for mortality at 100 ppm: 100 ppm active compound; for mortality at 20 ppm: 20 ppm active compound
Method: 20 mg of active compound are dissolved in 1 ml of dimethyl sulphoxide; lower concentrations are prepared by dilution with distilled water.
About 20 Lucilia cuprina larvae are introduced into a test tube containing about 1 cm^3 of horse meat and 0.5 ml of the test preparation of active compound. After 24 and 48 hours, the activity of the preparation is determined. The test tubes are transferred to beakers with their bases covered with sand. After a further 14 days, the test tubes are removed and the pupae/flies are counted.
The effect of the preparation is assessed according to the number of flies which have hatched after 1.5 times the development period of an untreated control. 100% means that no flies have hatched; 0% means that all of the flies have hatched normally.

[3] = tested on: cabbage moth (Plutella xylostella) caterpillars; experiment: Plutella test (cabbage leaves dipped); type: in vivo; settings: kill
Method: as §1, with “Cabbage leaves (Brassica oleracea)” for “Soya bean shoots (Glycine max)”, “cabbage moth (Plutella xylostella)” for “Heliothis virescens”

[4] = tested on: greenhouse red spider mite (Tetranychus urticae); experiment: Tetranychus test (OP resistant/dip treatment); type: in vivo; settings: kill of spider mites, 100 ppm active compound
Method: [table] To produce a suitable preparation of active compound, 1 part by weight of active compound is mixed with the stated amounts of solvent and emulsifier, and the concentrate is diluted with emulsifier-containing water to the desired concentration. Bean plants (Phaseolus vulgaris) which are heavily infested by all stages of the greenhouse red spider mite (Tetranychus urticae) are dipped into a preparation of active compound of the desired concentration. After the desired period of time, the effect in % is determined. 100% means that all spider mites have been killed; 0% means that none of the spider mites has been killed.

[5] = tested on: larvae of the mustard beetle (Phaedon cochleariae); experiment: Phaedon larvae test (cabbage leaves dipped); type: in vivo; settings: 168 h, kill, 7 d, read-out: Efficacy in % after 7 d; for pest or weed control at 100 ppm: 100 ppm active compound
Method: as §1, with “Cabbage leaves (Brassica oleracea)” for “Soya bean shoots (Glycine max)”, “larvae of the mustard beetle (Phaedon cochleariae)” for “Heliothis virescens caterpillars”, “beetle larvae” for “caterpillars”

[6] = tested on: army worm (Spodoptera exigua) caterpillars; experiment: Spodoptera exigua test (cabbage leaves dipped); type: in vivo; settings: kill
Method: as §1, with “Cabbage leaves (Brassica oleracea)” for “Soya bean shoots (Glycine max)”, “army worm (Spodoptera exigua)” for “Heliothis virescens”

[7] = tested on: army worm (Spodoptera frugiperda) caterpillars; experiment: Spodoptera frugiperda test (cabbage leaves dipped); type: in vivo; settings: 168 h, kill, 100 ppm active compound, 7 d, read-out: Efficacy in % after 7 d
Method: as §1, with “Cabbage leaves (Brassica oleracea)” for “Soya bean shoots (Glycine max)”, “army worm (Spodoptera frugiperda)” for “Heliothis virescens”

[8] = tested on: cotton aphid (Aphis gossypii); experiment: Aphis gossypii test (cotton leaves dipped); type: in vivo; settings: kill, 100 ppm active compound
Method: as §1, with “Cotton leaves (Gossypium hirsutum) heavily infested by the cotton aphid (Aphis gossypii)” for “Soya bean shoots (Glycine max)”, “concentration.” for “concentration and are populated with Heliothis virescens caterpillars whilst the leaves are still moist.”, “[…]” for “caterpillars”

[9] = tested on: caterpillars of the cotton bollworm (Heliothis armigera); experiment: Heliothis armigera test (soya bean shoots dipped); type: in vivo; settings: kill, 20 ppm active compound
Method: [table] To produce a suitable preparation of active compound, 1 part by weight of active compound is mixed with the stated amounts of solvent and emulsifier, and the concentrate is diluted with emulsifier-containing water to the desired concentration. Soya bean shoots (Glycine max) are treated by being dipped into the preparation of active compound of the desired concentration and are populated with caterpillars of the cotton bollworm (Heliothis armigera) whilst the leaves are still moist. After the desired period of time, the kill in % is determined. 100% means that all […] have been killed; 0% means that none of the caterpillars has been killed.

[10] = tested on: fruit tree red spider mite (Panonychus ulmi); experiment: Panonychus test (plum trees dipped); type: in vivo; settings: kill of spider mites, 100 ppm active compound
Method: To produce a suitable preparation of active compound, 1 part by weight of active compound is mixed with the stated amounts of solvent and emulsifier, and the concentrate is diluted with emulsifier-containing water to the desired concentration.
Plum trees (Prunus domestica) about 30 cm high which are heavily infested by all stages of the fruit tree red spider mite (Panonychus ulmi) are dipped into a preparation of active compound of the desired concentration.
After the desired period of time, the effect in % is determined. 100% means that all spider mites have been killed; 0% means that none of the spider mites has been killed.

[11] = reversed-phase HPLC column (C18); HPLC, acidic range pH 2.3, marked a)
[12] = reversed-phase HPLC column (C18); HPLC, neutral range pH 7.5, marked b)
[13] = 336 h, 14 d, inhibition of fly hatching, read-out: % Activity/kill (14 d)

Structure (SMILES) | chromatographic logP [2, 11] | chromatographic logP [2, 12] | Efficacy in % after 7 d [1] [%] | mortality at 100 ppm (Lucilia cuprina larvae; [13]) [%] | Efficacy in % after 7 d ([3]; 100 ppm active compound) [%] | Efficacy in % after 7 d [4] [%] | pest or weed control at 100 ppm [5] [%] | Efficacy in % after 7 d ([6]; 100 ppm active compound) [%] | pest or weed control at 100 ppm [7] [%] | Efficacy in % after 6 d [8] [%] | mortality at 100 ppm (Lucilia cuprina larvae; 48 h, read-out: % Activity/kill (48 h)) [%] | mortality at 20 ppm (Lucilia cuprina larvae; [13]) [%] | Efficacy in % after 7 d [9] [%] | Efficacy in % after 7 d ([3]; 20 ppm active compound) [%] | Efficacy in % after 7 d ([6]; 20 ppm active compound) [%] | pest or weed control at 20 ppm ([5]; 20 ppm active compound) [%] | Efficacy in % after 7 d [10] [%]
CCSc1ccc(-c2ccc(C3CCC(c4c(F)cccc4F)=N3)cc2)cn1 (stereo not drawn) [compound 4] | 3.29 | 4.54 | 100 | 100 | 100 | 95 | 100 | 100 | 100 | – | – | – | – | – | – | – | –
CCCOc1ccc(-c2ccc(C3CCC(c4c(F)cccc4F)=N3)cc2)cn1 (stereo not drawn) [compound 5] | 3.42 | 4.77 | 100 | – | 100 | 98 | 100 | 100 | 100 | 99 | – | – | – | – | – | – | –
Fc1cccc(F)c1C1=NC(c2ccc(-c3ccc(OCC4CC4)nc3)cc2)CC1 (stereo not drawn) [compound 25] | 3.48 | 4.67 | – | – | – | – | 100 | – | 100 | – | 100 | 100 | 100 | 100 | 100 | – | –
CCOc1ccc(-c2ccc(C3CCC(c4c(F)cccc4F)=N3)cc2)cn1 (stereo not drawn) [No. 1, 5-{4-[5-(2,6-difluorophenyl)-3,4-dihydro-2H-pyrrol-2-yl]phenyl}-2-ethoxypyridine] | 2.92 | – | – | – | – | – | 100 | – | 100 | – | – | – | – | – | – | – | –
Fc1cccc(F)c1C1=NC(c2ccc(-c3ccc(OC4CCC4)nc3)cc2)CC1 (stereo not drawn) [compound 19] | 3.66 | 4.9 | – | 100 | – | 95 | – | – | 100 | – | – | 100 | – | – | – | 100 | –
CCOc1ccc(Br)cn1 [III-1, 5-bromo-2-ethoxypyridine] | 2.92 | – | – | – | – | – | – | – | – | – | – | – | – | – | – | – | –

The next lines start with results.

chromatographic logP [2, 11] | chromatographic logP [2, 12] | Structure (SMILES) | Efficacy in % after 7 d [1] [%] | mortality at 100 ppm (Lucilia cuprina larvae; [13]) [%] | Efficacy in % after 7 d ([3]; 100 ppm active compound) [%] | Efficacy in % after 7 d [4] [%] | pest or weed control at 100 ppm [5] [%] | Efficacy in % after 7 d ([6]; 100 ppm active compound) [%] | pest or weed control at 100 ppm [7] [%] | Efficacy in % after 6 d [8] [%] | mortality at 100 ppm (Lucilia cuprina larvae; 48 h, read-out: % Activity/kill (48 h)) [%] | mortality at 20 ppm (Lucilia cuprina larvae; [13]) [%] | Efficacy in % after 7 d [9] [%] | Efficacy in % after 7 d ([3]; 20 ppm active compound) [%] | Efficacy in % after 7 d ([6]; 20 ppm active compound) [%] | pest or weed control at 20 ppm ([5]; 20 ppm active compound) [%] | Efficacy in % after 7 d [10] [%]
3.42 | 4.73 | CC(C)Oc1ccc(-c2ccc(C3CCC(c4c(F)cccc4F)=N3)cc2)cn1 (stereo not drawn) [compound 7] | 100 | – | 100 | – | 100 | 100 | 100 | 99 | – | – | – | – | – | – | 100
3.99 | 5.34 | Fc1cccc(F)c1C1=NC(c2ccc(-c3ccc(OC4CCCC4)nc3)cc2)CC1 (stereo not drawn) [compound 21] | – | – | – | 95 | 100 | – | 100 | – | – | – | – | – | – | – | –
3.8 | 4.96 | CC(C)Sc1ccc(-c2ccc(C3CCC(c4c(F)cccc4F)=N3)cc2)cn1 (stereo not drawn) [compound 8] | 100 | – | 100 | 98 | 100 | 100 | 100 | – | – | – | – | – | – | – | –
